The values that follow are results of earlier work, collected in article PMC12650809, “Evolving Therapeutic Landscape of ROS1-Positive Non-Small Cell Lung Cancer: An Updated Review” (Current Oncology, 2025).

Where two headings read alike, the source gives them in different places. Marks after values point to notes of the source that are not given here. Bounds are passed on as bounds.

One series has as its system ROS1^L2086F. On the set-up: method as in PMID 38070596. The following applies: for resistance or sensitivity conferred by ROS1^L2086F: L2086F alone or in combination with G2032R or S1986F, preclinical models; for resistance or activity with L2086F: ATP-binding pocket.
In series [1] the test system is ROS1-positive NSCLC.
Series [2] concerns ROS1-positive NSCLC. On the set-up: method as in earlier work. Particulars: WCLC 2025 Abstract 4540.
In series [3] the test system is ROS1-positive NSCLC. The following applies: for TKI-Naive ORR (%) / mPFS (Months): TKI-naïve patients; for IC-ORR (%): TKI-naïve patients evaluable for intracranial ORR.
The test system of a further series is ROS1^G2032R. On the set-up: method as in PMID 38070596. Particulars: solvent-front substitution.
The test system of series [4] is ROS1-positive NSCLC. The source holds these as a separate data set.
Series [5] relates to ROS1-positive NSCLC. On the set-up: method as in doi:10.1200/JCO.2024.42.16_suppl.8519. The following applies: 32 TKI-naïve patients.
In series [6] the test system is ROS1-positive NSCLC. On the set-up: method as in PMID 35227966.
Series [7] has as its system advanced ROS1-positive NSCLC. Set-up: method as in PMID 31669155.
Series [8] concerns ROS1-positive NSCLC. On the set-up: method as in PMID 28520527.
Series [9] has as its system advanced ROS1-positive NSCLC.
Series [10] has as its system ROS1-positive NSCLC. On the set-up: method as in PMID 31584608.
The subject of series [11] is ROS1-positive NSCLC. On the set-up: method as in PMID 29596029. The following applies: 127 patients.
Series [12] relates to advanced ROS1-positive NSCLC. This is another data set of the same source.
Series [13] concerns ROS1-positive NSCLC. Set-up: method as in PMID 30978502. The following applies: 34 patients.
Where [14] appears, read: 13 patients harboring ROS1^G2032R.
[15] abbreviates: previously treated with a ROS1 TKI, n = 113.
Where [16] appears, read: after at least one prior ROS1-targeted TKI.
[17] abbreviates: previously treated with crizotinib.
Setting [18] is: eight patients with baseline BMs.
Setting [19] is: isolated intracranial progression on crizotinib, n = 18.

As to `COc1cc2nccc(Oc3ccc(NC(=O)C4(C(=O)Nc5ccc(F)cc5)CC4)cc3)c2cc1OC` [cabozantinib], in the series with ROS1^L2086F, the “resistance or sensitivity conferred by ROS1^L2086F” value (from here on “resistance or sensitivity conferred”) is recorded as “potentially retaining sensitivity” and the “resistance or activity with L2086F” value is “preclinical efficacy”.

Turning to `C[C@@H](N)COc1ccc(-c2cnc3ccc(N[C@H](C)c4cccc(F)c4)nn23)cc1` [Taletrectinib, taletrectinib], in the series on ROS1-positive NSCLC [1], the “Notable AEs: QT prolongation” value is recorded as 18%, the “Notable AEs: diarrhea” value is on record as 61%, the “Notable AEs: dizziness” value is on record as 15% and the “Notable AEs: increased AST/ALT” value is recorded as 70%. In addition, in the series with ROS1-positive NSCLC [1], the “Notable AEs: nausea” value is 44% and the “Notable AEs: vomiting” value was 41%. Also, in the series on ROS1-positive NSCLC [1] (grade ≥ 3), the “Main Grade ≥ 3 AEs: QT prolongation” value was 3%, the “Main Grade ≥ 3 AEs: anemia” value was 3%, the “Main Grade ≥ 3 AEs: diarrhea” value was 3% and the “Main Grade ≥ 3 AEs: increased AST/ALT” value is recorded as 9%. Further, the “Main Grade ≥ 3 AEs: neutropenia” value in the series on ROS1-positive NSCLC [1] (grade ≥ 3) is recorded as 4%. Moreover, in the series on ROS1-positive NSCLC [2] (TKI-pretreated patients), the “IC-ORR (%)” value was 65.6%, the “TKI-Pretreated ORR (%)” value is 55.8% and the “mPFS (Months)” value was 9.7 Months. For the same compound, the “resistance or activity with L2086F” value in the series on ROS1^L2086F is reported as “cross-resistance”. Moreover, in the series with ROS1-positive NSCLC [3], the “TKI-Naive ORR (%)” value is 88.8%, the “mPFS (Months)” value is 45.6 Months and the “IC-ORR (%)” value is reported as 76.5 ^e %. Further, the “resistance or sensitivity with ROS1^G2032R” value in the series on ROS1^G2032R is listed as “some sensitivity”. For the same compound, the “rate of treatment discontinuation due to toxicity” value with ROS1-positive NSCLC [4] was 6.5%. Also, in the series on ROS1-positive NSCLC [4] (setting [14]), the objective response rate is reported as 61.5% and the “patients with objective response (number)” value is given as 8. Also, in the series on ROS1-positive NSCLC [4] (AEs, predominantly grade 1), the diarrhea is reported as 61%, the nausea is given as 44% and the transaminase elevation is reported as 70%. In the series on ROS1-positive NSCLC [4] (TKI-naïve patients, n = 160), the “confirmed ORR” value is reported as 88.8%, the “median DOR” value is 44.2 months and the “median PFS” value is reported as 45.6 months. Besides, in the series on ROS1-positive NSCLC [4] (TKI-naïve, measurable BMs), the “intracranial ORR” value is on record as 76.5% and the “median intracranial DOR” value is 14.7 months. For the same compound, in the series on ROS1-positive NSCLC [4] (neurological events), the dizziness is 21% and the dysgeusia was 15%. The “intracranial ORR” value in the series on ROS1-positive NSCLC [4] (previously treated with a ROS1 TKI) is recorded as 65.6%. In addition, in the series on ROS1-positive NSCLC [4] (setting [15]), the ORR is 55.8%, the “median DOR” value was 16.6 months and the “median PFS” value was 9.7 months.

As for `C[C@H]1Oc2cc(cnc2N)-c2c(nn(C)c2C#N)CN(C)C(=O)c2ccc(F)cc21` [Lorlatinib, lorlatinib], in the series with ROS1-positive NSCLC [1], the “Notable AEs: cognitive effects” value is on record as 27%, the “Notable AEs: dizziness” value is reported as 12%, the “Notable AEs: hypercholesterolemia” value is on record as 80% and the “Notable AEs: mood disorders” value is on record as 16%. In the series on ROS1-positive NSCLC [1], the “Notable AEs: weight gain” value is recorded as 23%. For the same compound, in the series on ROS1-positive NSCLC [1] (WCLC 2025 Abstract 4540), the “Discontinuation for AEs (%)” value was 1%. In the series with ROS1-positive NSCLC [1] (grade ≥ 3), the “Main Grade ≥ 3 AEs: hypercholesterolemia” value is given as 15%, the “Main Grade ≥ 3 AEs: hypertriglyceridemia” value is 19% and the “Main Grade ≥ 3 AEs: weight gain” value is 7%. Besides, in the series with ROS1-positive NSCLC [5], the ORR was 69% and the “median PFS” value was 35.8 months. In addition, in the series with ROS1-positive NSCLC [2] (TKI-pretreated patients with G2032R), the “ORR if G2032R Mutation (%)” value was 0%. Besides, in the series with ROS1-positive NSCLC [2] (TKI-pretreated patients), the “IC-ORR (%)” value is listed as 50% and the “mPFS (Months)” value was 8.5 Months. The “resistance or sensitivity conferred” value with ROS1^L2086F is listed as “cross-resistance”. Moreover, the ORR in the series with ROS1-positive NSCLC [6] (80 patients after at least one prior ROS1-targeted TKI) is recorded as 45%. Also, in the series with ROS1-positive NSCLC [6] (setting [16]), the “intracranial ORR” value was 72%, the “median OS” value is 19.6 months and the “median PFS” value is 7.1 months. In addition, the “median intracranial DOR” value with ROS1-positive NSCLC [6] (non-irradiated brain metastases) is 20.6 months. Besides, the “treatment discontinuation due to AEs” value in the series with ROS1-positive NSCLC [6] (real-world cohort) was 13%. Besides, in the series with ROS1^G2032R, the “resistance or sensitivity with ROS1^G2032R” value is “high-level resistance”. In [7] (21 TKI-naïve patients), the ORR is given as 62%. Also, in series [7] (TKI-naïve patients), the “median DOR” value was 25.3 months and the “median PFS” value was 21.0 months. Besides, the “intracranial ORR” value in series [7] (TKI-naïve, BMs at baseline) is reported as 64%. The “efficacy against ROS1^G2032R mutation” value in [7] (patients with secondary resistance mutations to crizotinib) was “limited efficacy”. Besides, the “treatment discontinuation due to AEs” value in series [7] (pivotal trial) is reported as 1%. Also, in series [7] (setting [17]), the ORR was 35%, the “intracranial ORR” value is given as 50% and the “median DOR” value is listed as 13.8 months. Also, the “activity in patients harboring ROS1^K1991E and ROS1^S1986F mutations” value in [7] (secondary resistance mutations to crizotinib) is reported as “showed activity in some patients”.

Turning to `Cc1cc(Nc2ncc(Cl)c(Nc3ccccc3S(=O)(=O)C(C)C)n2)c(OC(C)C)cc1C1CCNCC1` [Ceritinib, ceritinib], in the series on ROS1-positive NSCLC [3], the “TKI-Naive ORR (%)” value is given as 67%, the “mPFS (Months)” value is listed as 19.3 Months and the “IC-ORR (%)” value was 25 ^b %. Further, the dose reductions required in the series on ROS1-positive NSCLC [8] is 68%. Further, in the series with ROS1-positive NSCLC [8] (32 patients), the ORR is listed as 62% and the “median DOR” value was 21 months. Also, in the series with ROS1-positive NSCLC [8] (AEs, predominantly grade 1–2), the anorexia is 56%, the diarrhea is 85%, the nausea is recorded as 72% and the vomiting was 45%. Also, in the series on ROS1-positive NSCLC [8] (crizotinib-naïve patients), the ORR is recorded as 67%, the “median OS” value is listed as 24 months and the “median PFS” value is 19.3 months. In the series on ROS1-positive NSCLC [8] (setting [18]), the “CNS disease control rate” value is 63% and the “patients achieving an objective intracranial response” value is recorded as “two”.

`CCc1nc(C(N)=O)c(Nc2ccc(N3CCC(N4CCN(C)CC4)CC3)c(OC)c2)nc1NC1CCOCC1` [gilteritinib]: the “resistance or activity with L2086F” value in the series with ROS1^L2086F is on record as “preclinical efficacy”.

Take `CN1CCN(c2ccc(C(=O)Nc3n[nH]c4ccc(Cc5cc(F)cc(F)c5)cc34)c(NC3CCOCC3)c2)CC1` [Entrectinib, entrectinib]: the “resistance or sensitivity conferred” value in the series with ROS1^L2086F is “cross-resistance”. In series [9] (168 TKI-naïve patients), the ORR is given as 68%, the complete responses was 13%, the “median DOR” value is 20.5 months and the “median OS” value was 47.8 months. Further, the “median PFS” value in [9] (168 TKI-naïve patients) is 15.7 months. Also, the “median intracranial DOR” value in series [9] (baseline BMs) is on record as 12.9 months. The “intracranial ORR” value in series [9] (baseline BMs with measurable disease) was 80%. For the same compound, in series [9] (setting [19]), the “global ORR” value was 11%, the “intracranial ORR” value is listed as 19% and the “median PFS” value was 4.7 months. For the same compound, in the series on ROS1-positive NSCLC [3], the “TKI-Naive ORR (%)” value is 68%, the “mPFS (Months)” value was 15.7 Months and the “IC-ORR (%)” value is 80 ^a %. In addition, the “resistance or sensitivity with ROS1^G2032R” value in the series with ROS1^G2032R is “high-level resistance”.

`C[C@@H](Oc1cc(-c2cnn(C3CCNCC3)c2)cnc1N)c1c(Cl)ccc(F)c1Cl` [Crizotinib, crizotinib]: in the series on ROS1-positive NSCLC [10], the ORR is 69.4% and the “median PFS” value is recorded as 5.5 months. Moreover, in the series with ROS1-positive NSCLC [1], the “Notable AEs: diarrhea” value is listed as 44%, the “Notable AEs: nausea” value is recorded as 40% and the “Notable AEs: visual disturbances” value is listed as 82%. In addition, in the series on ROS1-positive NSCLC [1] (WCLC 2025 Abstract 4540), the “Discontinuation for AEs (%)” value was below 1% and the “Notable AEs: peripheral edema” value was 40%. Further, in the series on ROS1-positive NSCLC [1] (grade ≥ 3), the “Main Grade ≥ 3 AEs: hypophosphatemia” value was “Hypophosphatemia (10%), neutropenia (10%)” and the “Main Grade ≥ 3 AEs: neutropenia” value is “Hypophosphatemia (10%), neutropenia (10%)”. For the same compound, in the series on ROS1^L2086F, the “resistance or sensitivity conferred” value was “cross-resistance”. For the same compound, in the series with ROS1-positive NSCLC [11], the ORR is reported as 72% and the “median PFS” value is 15.9 months. Moreover, in the series with ROS1-positive NSCLC [3], the “TKI-Naive ORR (%)” value is given as 72%. In [12], the 4-year survival probability is recorded as 51%, the “AEs leading to permanent treatment discontinuation” value was “No AEs led to permanent treatment discontinuation”, the “grade 4 or 5 events” value was “no grade 4 or 5 events” and the “median PFS” value is recorded as 19.3 months. In addition, in series [12], the “median duration of response (DOR)” value is given as 24.7 months, the “median overall survival (OS)” value is 51.4 months and the “median time to response” value is given as 7.9 weeks. Besides, in series [12] (53 patients), the ORR is on record as 72%, the “complete responses (number)” value is given as 6 and the “partial responses (number)” value is reported as 32. In series [12] (treatment-related AEs), the diarrhea is 44%, the nausea was 40%, the peripheral edema is on record as 40% and the visual disturbances is given as 82%. Besides, the “resistance or sensitivity with ROS1^G2032R” value with ROS1^G2032R was “high-level resistance”. Moreover, in the series with ROS1-positive NSCLC [13], the ORR is recorded as 70% and the “median PFS” value is reported as 20 months.
